# Structures can show the parent of a compound that is named as a salt. Where two headings read alike, the source gives them in different places.
# Experiments:
# [1] = approximative toxicity, intraperitoneal (LD50); settings: in vivo, ip
# Source text: *3xip,q3d: three intraperitoneal administrations with an interval of thre
# 1xip: one intraperitoneal administration
# L1210 leukemia cells = assay: cross-resistance in vitro, MTT assay on sensitive and adriamycin (doxorubicin)-resistant L1210 leukemia cells; assay type: cell-based, mouse; settings: for Degree of cross-resistance to adriamycin / Degree of resistance of the cell: 3d incubation; for Degree of resistance of the cell: IC50 resistant subline relative to IC50 sensitive line
# Procedure: L1210, A 549 or HT 29 in the exponential phase of growth are incubated in a cell density of 5×10^3 cells/ml in RPMI 1640 in a 96-well microtiter plate for 72 hours with various concentrations of the test substance at 37° C., 5% CO2 and 95% relative humidity. Control experiments contain merely growth medium in place of the test substance. Each test substance and the control are determined in quadruplicate. After incubation for 65 hours, 50 μl of MTT solution (2.5 mg/ml in phosphate-buffered saline) are added. In the presence of live cells, MTT is reduced to a dark-red insoluble formazan dyestuff. This reaction is complete after 7 hours (L1210 cells) or after 24 hours (A 549, HT 29 cells), and the supernatant medium is carefully removed by aspiration. The insoluble dyestuff is dissolved by addition of 100 μl of DMSO, and the extinction of the resulting solution at a wavelength of 492 nm is then measured for each well in a Flow 340 CC multiscan photometer.
# The ratio of the extinctions of treated and untreated cells yields a dose-effect plot from which the concentration which just kills 50% of the cells (IC50) can be read off. The coefficient of variation for repeat tests is less than 15%.
# The cross-resistance between the particular test compound and doxorubicin is determined using the MTT assay (for method, see above) on sensitive and resistant L1210 leukemia cells.
# The resistant cell line was established by incubation of a sensitive subline with stepwise increasing concentrations of the reference compound.
# The IC50 of the test compound on the resistant subline relative to the IC50 of the sensitive subline yields the degree of resistance both for the test compound (DR(T)) and for the reference compound (DR(R)) in accordance with the formula [formula]
# In addition, the degree of cross-resistance (DCR) for the test compound is calculated in accordance with the formula [formula]
# In the case where the loss of activity of the test compound on the resistant line related to the sensitive line is greater than that of the reference compound, a degree of cross-resistance of more than 100% is possible.
# [2] = system: L1210 mouse leukemia cells; assay: formation of colonies of L1210 leukemia cells in soft agar; assay type: cell-based; settings: for IC50: Mus musculus
# Procedure: The cytostatic activity of the compounds according to the invention was tested using L1210 mouse leukemia cells. This made use of the formation of colonies of L1210 leukemia cells in agar plates. This method is used to detect the effect of the test substances on the growth behavior of the cells over 1 hour or over several generations. With a cell cycle lasting 10-12 hours, this means that about 14 consecutive generations are observed in a test lasting 7 days. In this test, the substances having cytostatic activity according to the invention bring about a reduction in the number of colonies to be observed by comparison with an untreated control sample.
# 500 leukemia cells per plate were incubated with various concentrations of the test substance at 37° C. for 1 hour. These cells were then washed twice with McCoy5A medium and finally, after addition of 0.3% agar, poured into Petri dishes. Controls were incubated only with fresh medium. In some cases, in place of the incubation for one hour, various concentrations of test substances were mixed with the upper agar layer in order in this way to achieve continuous exposure of the cells throughout the incubation time. After the agar had solidified, the plates were incubated at 37° C. in an incubator for 7 days (5% by vol. CO2, 95% relative humidity). The number of colonies with a diameter of more than 60 μm which had formed was then counted. The results have been given as the number of colonies in treated agar plates as a percentage of the untreated control. The IC50 was determined, as a measure of the activity of the substance, from the dose-effect plot obtained in this way.
# [3] = one intraperitoneal administration, read-out: Approximative toxicity LD50, 1xip
# [4] = 168 h, continuous exposure, 7 days, L1210 colony formation, read-out: Long-term incubation IC50
# [5] = 1 h incubation, then 7 days colony formation, L1210, read-out: 1 h Incubation IC50
# [6] = L1210, 168 h, read-out: Long-term incubation IC50, continuous exposure, 7 days, L1210 colony formation
# [7] = L1210, read-out: 1 h Incubation IC50, 1 h incubation, then 7 days colony formation, L1210
# [8] = three intraperitoneal administrations with an interval of three days between each, read-out: Approximative toxicity LD50, 3xip, q3d
# [9] = 1 h incubation, then 7 days colony formation, L1210
# [10] = continuous exposure, 7 days, L1210 colony formation
structure (smiles),measurement,setting,value
"CC[C@@]1(O)C[C@H](O[C@H]2C[C@H](N(C)C)[C@H](OC(C)=O)[C@H](C)O2)c2c(O)c3c(c(O)c2[C@H]1O)C(=O)c1cccc(O)c1C3=O [Compound 21, 7-O-(4'-O-Acetyl-α-L-rhodosaminyl)-β-rhodomycinone]",LD50,[1]; [3],1 to 10 mg/kg
same,Degree of cross-resistance to adriamycin,L1210 leukemia cells,2.4%
same,Degree of resistance of the cell,L1210 leukemia cells,2.2
same,IC50,[2]; [4],0.08 µg/mL
same,IC50,[2]; [5],0.7 µg/mL
"CC[C@@]1(O)C[C@H](O[C@H]2C[C@H](N(C)C)[C@H](OC(=O)c3ccc(OC)cc3)[C@H](C)O2)c2c(O)c3c(c(O)c2[C@H]1O)C(=O)c1cccc(O)c1C3=O [Compound 18, 7-O-(4'-O-p-Methoxybenzoyl-α-L-rhodosaminyl)-β-rhodomycinone]",LD50,[1]; [3],10 to 50 mg/kg
same,IC50,[2]; [4],0.075 µg/mL
same,IC50,[2]; [5],0.66 µg/mL
"CC[C@@]1(O)C[C@H](O[C@H]2C[C@H](N(C)C)[C@H](OC(=O)c3ccc([N+](=O)[O-])cc3)[C@H](C)O2)c2c(O)c3c(c(O)c2[C@H]1O[C@H]1C[C@H](N(C)C)[C@H](OC(=O)c2ccc([N+](=O)[O-])cc2)[C@H](C)O1)C(=O)c1cccc(O)c1C3=O [Compound 7, 7,10-O-Bis-(4'-O-p-nitrobenzoyl-α-L-rhodosaminyl)-β-rhodomycinone]",IC50,[2]; [6],2.1 µg/mL
same,IC50,[2]; [7],> 10 µg/mL
"CC[C@@]1(O)C[C@H](O[C@H]2C[C@H](N(C)C)[C@H](OC(=O)c3ccccc3)[C@H](C)O2)c2c(O)c3c(c(O)c2[C@H]1O[C@H]1C[C@H](N(C)C)[C@H](OC(=O)c2ccccc2)[C@H](C)O1)C(=O)c1cccc(O)c1C3=O [Compound 2, HCl adduct of compound 1]",LD50,[1]; [8],> 85 mg/kg
same,IC50,[2]; [4],0.095 µg/mL
same,IC50,[2]; [5],> 1 µg/mL
"CC[C@@]1(O)C[C@H](O[C@H]2C[C@H](N(C)C)[C@H](O)[C@H](C)O2)c2c(O)c3c(c(O)c2[C@H]1O[C@H]1C[C@H](N(C)C)[C@H](OC(=O)c2ccc(OC)cc2)[C@H](C)O1)C(=O)c1cccc(O)c1C3=O [Compound 12b, 7-O-α-L-rhodosaminyl-10-O-[4""-O-(p-methoxybenzoyl)-α-L-rhodosaminyl]-β-rhodomycinone]",LD50,[1]; [8],5.33 to 10.7 mg/kg
same,Degree of cross-resistance to adriamycin,L1210 leukemia cells,5.0%
same,Degree of resistance of the cell,L1210 leukemia cells,5.0
same,IC50,[2]; [4],0.011 µg/mL
same,IC50,[2]; [5],0.1 µg/mL
"CC[C@@]1(O)C[C@H](O[C@H]2C[C@H](N(C)C)[C@H](OC(=O)c3ccc(C#N)cc3)[C@H](C)O2)c2c(O)c3c(c(O)c2[C@H]1O[C@H]1C[C@H](N(C)C)[C@H](OC(=O)c2ccc(C#N)cc2)[C@H](C)O1)C(=O)c1cccc(O)c1C3=O [Compound 6, HCl adduct of compound 5]",1 h Incubation IC50,[2]; [9],> 1 µg/mL
same,Long-term incubation IC50,[2]; [10],0.14 µg/mL
"CC[C@@]1(O)C[C@H](O[C@H]2C[C@H](N(C)C)[C@H](OC(=O)c3ccc([N+](=O)[O-])cc3)[C@H](C)O2)c2c(O)c3c(c(O)c2[C@H]1O)C(=O)c1cccc(O)c1C3=O [Compound 19, 7-O-(4'-O-p-Nitrobenzoyl-α-L-rhodosaminyl)-β-rhodomycinone]",LD50,[1]; [3],> 50 mg/kg
same,IC50,[2]; [6],0.03 µg/mL
same,IC50,[2]; [7],0.55 µg/mL
"CC[C@@]1(O)C[C@H](O[C@H]2C[C@H](N(C)C)[C@H](OC(=O)c3ccc(OC)cc3)[C@H](C)O2)c2c(O)c3c(c(O)c2[C@H]1O[C@H]1C[C@H](N(C)C)[C@H](OC(=O)c2ccc(OC)cc2)[C@H](C)O1)C(=O)c1cccc(O)c1C3=O [Compound 3, 7,10-O-Bis-(4'-O-p-methoxybenzoyl-α-L-rhodosaminyl)-β-rhodomycinone]",LD50,[1]; [3],> 100 mg/kg
same,IC50,[2]; [6],0.115 µg/mL
same,IC50,[2]; [7],> 1 µg/mL
"CC[C@@]1(O)C[C@H](O[C@H]2C[C@H](N(C)C)[C@H](OC(=O)c3ccccc3)[C@H](C)O2)c2c(O)c3c(c(O)c2[C@H]1O[C@H]1C[C@H](N(C)C)[C@H](OC(=O)c2ccccc2)[C@H](C)O1)C(=O)c1cccc(O)c1C3=O [Compound 1, 7,10-O-Bis-(4'-O-benzoyl-α-L-rhodosaminyl)-β-rhodomycinone]",LD50,[1]; [3],> 100 mg/kg
same,Degree of cross-resistance to adriamycin,L1210 leukemia cells,0%
same,Degree of resistance of the cell,L1210 leukemia cells,1.0
"CC[C@@]1(O)C[C@H](O[C@H]2C[C@H](N(C)C)[C@H](OC(=O)c3ccc(OC)cc3)[C@H](C)O2)c2c(O)c3c(c(O)c2[C@H]1O[C@H]1C[C@H](N(C)C)[C@H](OC(=O)c2ccc(OC)cc2)[C@H](C)O1)C(=O)c1cccc(O)c1C3=O [Compound 4, HCl adduct of compound 3]",1 h Incubation IC50,[2]; [9],> 1 µg/mL
same,Long-term incubation IC50,[2]; [10],0.09 µg/mL
"CC[C@@]1(O)C[C@H](O[C@H]2C[C@H](N(C)C)[C@H](OC(=O)c3ccc(C#N)cc3)[C@H](C)O2)c2c(O)c3c(c(O)c2[C@H]1O[C@H]1C[C@H](N(C)C)[C@H](OC(=O)c2ccc(C#N)cc2)[C@H](C)O1)C(=O)c1cccc(O)c1C3=O [Compound 5, 7,10-O-Bis-(4'-O-p-cyanobenzoyl-α-L-rhodosaminyl)-β-rhodomycinon]",IC50,[2]; [6],0.105 µg/mL
same,IC50,[2]; [7],> 1 µg/mL
"CC[C@@]1(O)C[C@H](O[C@H]2C[C@H](N(C)C)[C@H](OC(=O)c3ccc(Br)cc3)[C@H](C)O2)c2c(O)c3c(c(O)c2[C@H]1O[C@H]1C[C@H](N(C)C)[C@H](OC(=O)c2ccc(Br)cc2)[C@H](C)O1)C(=O)c1cccc(O)c1C3=O [Compound 8, 7,10-O-Bis-(4'-O-p-bromobenzoyl-α-L-rhodosaminyl)-β-rhodomycinone]",IC50,[2]; [6],0.3 µg/mL
same,IC50,[2]; [7],> 10 µg/mL
"CCC(=O)O[C@@H]1[C@H](C)O[C@@H](O[C@H]2C[C@](O)(CC)[C@H](O[C@H]3C[C@H](N(C)C)[C@H](OC(=O)CC)[C@H](C)O3)c3c(O)c4c(c(O)c32)C(=O)c2c(O)cccc2C4=O)C[C@@H]1N(C)C [Compound 10, 7,10-O-Bis-(4'-O-propionyl-α-L-rhodosaminyl)-β-rhodomycinone]",IC50,[2]; [4],0.12 µg/mL
same,IC50,[2]; [5],0.25 µg/mL
"COc1cccc2c1C(=O)c1c(O)c3c(c(O)c1C2=O)C[C@@](O)(C(=O)CO)C[C@@H]3O[C@H]1C[C@H](N)[C@H](O)[C@H](C)O1 [Adriamycin, reference compound]",Degree of cross-resistance to adriamycin,L1210 leukemia cells,100.0%
same,Degree of resistance of the cell,L1210 leukemia cells,60-80
same,resistance of the resistant cell line for doxorubicin,"L1210 leukemia cells; resistant L1210 line, 4320 min",60-80 fold
same,IC50,[2]; [6],0.02 µg/mL
same,IC50,[2]; [7],0.04 µg/mL
"CC[C@@]1(O)CCc2c(O)c3c(c(O)c2[C@H]1O[C@H]1C[C@H](N(C)C)[C@H](OC(=O)c2ccccc2)[C@H](C)O1)C(=O)c1cccc(O)c1C3=O [Compound 22, 10-O-(4'-O-Benzoyl-α-L-rhodosaminyl)-γ-rhodomycinone]",LD50,[1]; [3],1 to 10 mg/kg
same,IC50,[2]; [4],0.48 µg/mL
same,IC50,[2]; [5],> 1 µg/mL
"CC[C@@]1(O)C[C@H](O[C@H]2C[C@H](N(C)C)[C@H](OC(=O)c3ccccc3)[C@H](C)O2)c2c(O)c3c(c(O)c2[C@H]1O)C(=O)c1cccc(O)c1C3=O [Compound 17, 7-O-(4'-O-benzoyl-α-L-rhodosaminyl)-β-rhodomycinone]",LD50,[1]; [3],1 to 10 mg/kg
same,IC50,[2]; [4],0.12 µg/mL
same,IC50,[2]; [5],0.9 µg/mL
